Assay results reported in US7566718B2, “Amine-linked pyridyl and phenyl substituted piperazine-piperidines with CXCR3 antagonist activity” (Schering Corporation, priority 2005, dated 2009).

Target: T1, human CXCR3 (N-delta 4) (Homo sapiens, UniProt P49682)
T1 construct: CD8 leader (N); Flag tag; expressed in transfected cells; membrane preparation
T1 sequence (P49682 5-368 limits assumed): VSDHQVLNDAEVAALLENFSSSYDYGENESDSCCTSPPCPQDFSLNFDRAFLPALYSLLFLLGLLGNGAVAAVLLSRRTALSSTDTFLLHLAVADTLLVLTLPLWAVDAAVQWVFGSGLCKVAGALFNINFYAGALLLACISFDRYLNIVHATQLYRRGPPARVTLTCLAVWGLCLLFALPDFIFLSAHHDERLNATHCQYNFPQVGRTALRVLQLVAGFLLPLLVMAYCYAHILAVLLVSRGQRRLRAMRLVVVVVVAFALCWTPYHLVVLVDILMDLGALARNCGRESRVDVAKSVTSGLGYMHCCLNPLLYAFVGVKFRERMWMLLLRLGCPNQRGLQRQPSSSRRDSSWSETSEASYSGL
Assay: Human CXCR3 (N-delta 4) scintillation proximity assay (SPA), [125I] IP-10 binding to Ba/F3-hCXCR3 membranes
Conditions: IC50 rating; [125I] IP-10 displacement, human CXCR3; read-out: IC50
Procedure, shortened: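 Membranes from Ba/F3 cells expressing Flag-tagged hCXCR3 (N-delta 4), 2 μg/point, precoupled to WGA SPA beads. Binding of 25 pM [125I] IP-10 measured with titrated compounds, 3 hr at room temperature, in HEPES buffer with CaCl2, MgCl2, NaCl and 1.0% BSA; bound tracer read by scintillation counting.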

Compound | IC50 [nM]
CC[C@H]1CN(c2ncc(NS(C)(=O)=O)cc2Cl)CCN1C1CCN(C(CO)c2ccc(Cl)cc2)CC1 (some centres unmarked) [Compound 11] | < 25
CC[C@H]1CN(c2ncc(NS(C)(=O)=O)cc2Cl)CCN1C1CCN(Cc2ccc(Cl)cc2)CC1 [Compound 6] | < 25
C[C@H]1CN(c2ncc(NS(C)(=O)=O)cc2Cl)CCN1C1CCN(Cc2ccc(Cl)cc2)CC1 [Compound 32] | 25 to 100
CC[C@H]1CN(c2ncc(Nc3c(N(C)C)c(=O)c3=O)cc2Cl)CCN1C1CCN(C(CO)c2ccc(Cl)cc2)CC1 (some centres unmarked) [Compound 94] | < 25
CC[C@H]1CN(c2ncc(NS(C)(=O)=O)cc2Cl)CCN1C1CCN(Cc2ccc(Cl)cc2C#N)CC1 [Compound 23] | < 25
CC[C@H]1CN(c2ncc(NS(C)(=O)=O)cc2Cl)CCN1C1CCN(C(=O)c2ccc(Br)s2)CC1 [Compound 69] | > 100
CC[C@H]1CN(c2ncc(Nc3c(NC4CC4)c(=O)c3=O)cc2Cl)CCN1C1CCN(Cc2ccc(OC(F)(F)F)cc2)CC1 [Compound 77] | < 25
C[C@@H]1CN(c2ncc(Nc3c(NCC(F)(F)F)c(=O)c3=O)cc2Cl)[C@@H](C)CN1C1CCN(C/C=C/c2ccccc2)CC1 [Compound 115] | > 100
CC[C@H]1CN(c2ncc(NS(C)(=O)=O)cc2Cl)CCN1C1CCN(Cc2ccc(Cl)cc2-c2nnn[nH]2)CC1 [Compound 36] | 25 to 100

Next, values leading:

IC50 [nM] | Compound
> 100 | Cc1cc(Nc2c(NCC(F)(F)F)c(=O)c2=O)cnc1N1C[C@@H](C)N(C2CCN(C(=O)c3c(C)noc3C)CC2)C[C@@H]1C [Compound 165]
25 to 100 | CC[C@H]1CN(c2ncc(NC(N)=O)cc2Cl)CCN1C1CCN(Cc2ccc(Cl)cc2F)CC1 [Compound 186]
> 100 | C[C@H]1CN(c2ncc(-n3cccn3)cc2Cl)CCN1C1CCN(Cc2ccc(Cl)cc2F)CC1 [Compound 225]
> 100 | CC[C@H]1CN(c2ncc(NC3=NS(=O)(=O)N=C3N3CCC3)cc2Cl)CCN1C1CCN(Cc2ccc(F)c(F)c2)CC1 [Compound 268]
> 100 | C[C@@H]1CN(c2ncc(Nc3c(NCC(F)(F)F)c(=O)c3=O)cc2Cl)[C@@H](C)CN1C1CCN(Cc2ccc(C#Cc3ccccc3)cc2)CC1 [Compound 126]
